Read-outs that look alike come from different tables or passages of the source.
Columns and labels:
[1] = Average animal weight in MCF-7 mouse xenograft model; assay type: in vivo; details: nude mice with MCF-7 xenograft, i.p.; for Average Weight of Animals in Grams after Days 0: day 0; for Average Weight of Animals in Grams after Days 2: day 2; for Average Weight of Animals in Grams after Days 4: day 4; for Average Weight of Animals in Grams after Days 6: day 6; for Average Weight of Animals in Grams after Days 8: day 8; for Average Weight of Animals in Grams after Days 10: day 10; for Average Weight of Animals in Grams after Days 12: day 12; for Average Weight of Animals in Grams after Days 14: day 14; for Average Weight of Animals in Grams after Days 16: day 16; for Average Weight of Animals in Grams after Days 18: day 18; for Average Weight of Animals in Grams after Days 20: day 20; for Average Weight of Animals in Grams after Days 22: day 22
Excerpt: “In this work, MCF-7 mouse xenograft model was used. The animal protocol was approved by the Institutional Animal Use Ethics and Care Committee of the University of Alabama at Birmingham (50-01-05-08B). Female athymic pathogen-free nude mice (nu/nu, 4–6 weeks) were purchased from Frederick Cancer Research and Development Center (Frederick, MD, USA). To establish MCF-7 human breast cancer xenografts, each of the female nude mice was first implanted with a 60-day (subcutaneously, s.c.) slow release estrogen pellet (SE-121, 1.7 mg […]/pellet; Innovative Research of America, Sarasota, FL, USA). After 24 h, grown cells were harvested, washed twice with serum-free medium, resuspended, and injected subcutaneously (5 million cells/0.2 mL) into the left inguinal area of the mice. During the experiment, animals were checked periodically and the percentages of tumor growth, as well as animal weights, were recorded. Every 48 h, the size of the tumor was recorded by measuring two perpendicular diameters of the tumor and tumor volume was calculated according to Wang et al. [46]”.
“Treated animals and control groups (7–10 mice/group) received different compounds and vehicles, respectively. The tested compounds were dissolved in PEG400:ethanol:saline (57.1:14.3:28.6, v/v/v), and injected intraperitoneal (i.p.) at doses of […], 3 d/wk for 3 weeks. The higher dose (10 µM/kg/d, 3 d/wk) inhibited MCF-7 xenograft tumor growth”.

[2] = tested on: MCF-7 cells; assay: MTT cytotoxic assay on MCF-7 cells; assay type: cell-based, Human
Excerpt: “Human breast cancer cells (MCF-7) and normal non-tumorigenic MCF-10A cells were used throughout the work. Cells were obtained from ATCC, Gaithersburg, MD, USA. Standard MTT assay was used to explore the possible cytotoxic effects of the synthesized compounds [41, 42]. Medium composition, cultivation conditions and assay performance were exactly the same as our previous work. […] After MTT addition, the absorbance of the dissolved formazan crystals was read at 570 nm. The IC50 values were obtained with linear regression equations using Origin® 6.1 software (Origin Lab Corporation, Northampton, MA, USA)”.

Compound	Average Weight of Animals in Grams after Days 0 [1] [Grams]	Average Weight of Animals in Grams after Days 2 [1] [Grams]	Average Weight of Animals in Grams after Days 4 [1] [Grams]	Average Weight of Animals in Grams after Days 6 [1] [Grams]	Average Weight of Animals in Grams after Days 8 [1] [Grams]	Average Weight of Animals in Grams after Days 10 [1] [Grams]	Average Weight of Animals in Grams after Days 12 [1] [Grams]	Average Weight of Animals in Grams after Days 14 [1] [Grams]	Average Weight of Animals in Grams after Days 16 [1] [Grams]	Average Weight of Animals in Grams after Days 18 [1] [Grams]	Average Weight of Animals in Grams after Days 20 [1] [Grams]	IC50 ([2]; Homo sapiens, MCF7) [µM]	Average Weight of Animals in Grams after Days 22 [1] [Grams]	IC50 [2] [µM]
O=C(Cn1cnc2scc(-c3cccs3)c2c1=O)NN1C(=O)CSC1=Nc1ccccc1 [Compound 11, N-(4-oxo-2-(phenylimino)thiazolidin-3-yl)-2-(4-oxo-5-(thiophen-2-yl)thieno[2,3-d]-pyrimidin-3(4H)-yl)acetamide]	26.6	26.6	26.6	26.5	26.6	26.6	26.4	26.3	26.3	26.3	26.3	2.48 ± 0.054		
O=C(Cn1cnc2scc(-c3cccs3)c2c1=O)NNC(=S)Nc1ccccc1 [Compound 10, 2-(2-(4-oxo-5-(thiophen-2-yl)thieno[2,3-d]pyrimidin-3(4H)-yl)acetyl)-N-phenylhydrazine-1-carbothioamide]	24.9	24.9	24.9	24.9	24.8	24.8	24.8	24.4	24.4	24.4	24.4	3.55 ± 0.065	24.4	
O=c1oc(Cn2cnc3scc(-c4cccs4)c3c2=O)nc2ccccc12 [Compound 5, 2-((4-oxo-5-(thiophen-2-yl)thieno[2,3-d]pyrimidin-3(4H)-yl)methyl)-4H-benzo[d]-[1,3] oxazin-4-one]	22.9	22.9	22.9	22.8	22.8	22.7	22.8	22.7	22.9	22.6	22.6	4.76 ± 0.087	22.5	
N.N.[Cl][Pt][Cl] [Cisplatin, reference compound]														13.34 ± 0.11
Milaplatin [reference compound]														18.43 ± 0.13
COc1cccc(C2SCC(=O)N2NC(=O)Cn2cnc3scc(-c4cccs4)c3c2=O)c1OC (stereo not shown) [Compound 8, N-(2-(2,3-Dimethoxyphenyl)-4-oxothiazolidin-3-yl)-2-(4-oxo-5-(thiophen-2-yl)thieno[2,3-d]pyrimidin-3(4H)-yl)acetamide]	25.3	25.3	25.2	25.2	25.2	25.1	25.1	24.8	24.7	24.6	24.5	1.26 ± 0.052	24.2	
CCOC(=O)Cn1cnc2scc(-c3cccs3)c2c1=O [Compound 3, ethyl 2-(4-oxo-5-(thiophen-2-yl)thieno[2,3-d]pyrimidin-3(4H)-yl)acetate]	28	28	28	28	28.2	27.9	27.8	27.7	27.7	27.6	27.7	5.98 ± 0.099	27.7	
NC1=CC(N)N(NC(=O)Cn2cnc3scc(-c4cccs4)c3c2=O)C=C1 (stereo not shown) [Compound 15, N-(2,4-Diaminopyridin-1(2H)-yl)-2-(4-oxo-5-(thiophen-2-yl)thieno[2,3-d]-pyrimidin-3(4H)-yl)acetamide]	26.1	26.1	26.1	25.8	25.8	25.7	25.7	25.6	25.6	25.5	25.5	1.18 ± 0.032	25.2	
